System: 3T3L1 murine adipocyte line
Procedure: For example, a 2% (w/w) chitosan preparation obtained in example 1 (DA: 2%, Mw: 450000 g·mol^−1, Bioxis Pharmaceuticals S.A.S.) is diluted in a saline solution (NaCl at 300 mOsmol·l^−1) containing 1% (w/w) of acetic acid in a well (in 24-well plates) and then distributed over half of the other wells, dried, rinsed with PBS and then with the culture medium before cell seeding (3T3L1 murine adipocyte line ATCC CL-173™). When the cells are at confluence, differentiation is induced by adding a differentiation medium. The cells are then treated with a small dose of oleic acid (OA, 2.5 μM) for 6 hours. The cells are put back in a culture medium without OA until the next day in order to avoid any background noise from the OA. Proliferation is analysed by phase contrast microscopy (×20): the images are taken at various times (2 days and 5 days post seeding), at an identical position for each well. […] The marking is observed in fluorescence microscopy and quantification carried out by imaging. The imaging and the fluorescence quantification are carried out on a real-time imaging station. The controls are fixed before the induction of differentiation (confluence, DO).

chitosan
chitosan concentration with toxic effect on the 3T3L1 line: greater than or equal to 2% | morphology of the cells: aggressive or even toxic medium
